The numbers were not newly measured in patent publication US20100055163A1, “FORMULATION OF NATURAL T[…] […] FROM THE GENUS OLEA IN LIPOSOMES” (UNIVERSIDAD DE GRANADA, priority 2006, published 2010), which cites them from elsewhere.

Structures are written as SMILES.

One series has as its system rainbow trout. Conditions: added to feed.
In series [1] the test system is acquired immunodeficiency virus. Conditions: acts intracellularly.
The target in a further series is HIV-1 protease (Human immunodeficiency virus type 1 group M subtype B, UniProt P04585).
Series [2] deals with parasites of the genus Cryptosporidium. On the set-up: dose or concentration left out as unconfirmed. The settings on record: MDCK cell lines.
The test system of series [3] is membrane hepatocyte lipid peroxidation (LPO). Conditions: rats.

In the case of `CC1(C)CC[C@]2(C(=O)O)CC[C@]3(C)C(=CC[C@@H]4[C@@]5(C)C[C@@H](O)[C@H](O)C(C)(C)[C@@H]5CC[C@]43C)[C@@H]2C1` [maslinic acid, 2-alpha, 3-beta-dihydroxy-28-carboxy-oleanene], the “hepatic organ and function” value in the series with rainbow trout was “significant improvement of the hepatic organ and function”. In series [1], the “exit of the virus from the infected cell towards the medium” value was “considerably inhibits”. For the same compound, the “inhibiting activity in vitro of HIV-1 protease” value at HIV-1 protease is listed as “powerful inhibiting activity”. Besides, the infection inhibition percentage in series [2] is listed as 92.3%. Besides, the “lipoperoxide levels and membrane hepatocyte susceptibility to lipid peroxidation (LPO)” value in series [3] is “reduces lipoperoxide levels and membrane hepatocyte susceptibility to lipid peroxidation (LPO)”.
